Experimental findings from the METLIN SMRT retention time set (Domingo-Almenara et al. 2019) are described below.

Each structure is given as a SMILES string.

This data set can be described thus: gradient 5% acetonitrile 3 min, to 50% in 2 min, to 85% in 15 min, held 3 min, 100 µL/min. As to conditions: column: Zorbax Extend-C18 2.1 x 50 mm; eluents: water / acetonitrile, 0.1% formic acid. The gist of the method:
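Pure standards were analyzed in mixtures of ~100 molecules using HPLC coupled to a quadrupole time-of-flight mass spectrometer, in both positive and negative ionization mode. Separation used a Zorbax Extend-C18 column (2.1 × 50 mm, 1.8 μm) at 100 μL/min, with water and acetonitrile each containing 0.1% formic acid. Dead and dwell volumes were 40 μL and 900 μL, and data were collected over 3 months. Retention time was read from computationally picked adduct peaks, each inspected manually.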
`CC1=C(c2ccc(C)cc2)S(=O)(=O)N=C1N1CCCN(C(=O)Cc2cccnc2)CC1` displayed an RP-LC retention time of 624 s. In turn, `CCCC(CCC)C(=O)N1CCC(Cc2nnc(C3CCOCC3)o2)C1` (centres undefined) had an RP-LC retention time of 755 s. Molecule `Cn1ncc2c(N3CCCC3)nc(C(=O)NCc3ccc(Cl)cc3)nc21` displayed an RP-LC retention time of 858 s. Consider `CC(C)(C)C(=O)Nc1cnc(N2CCCCCC2)nc1`, for which the RP-LC retention time turned out to be 817 s. Turning to `C=CCNC(=O)C1CCN(C(=O)Nc2ccc(NC(=O)Nc3ccc(C)c(C)c3)cc2)CC1`, the RP-LC retention time was 740 s. As for `Cc1cc(NC(=O)C(=O)NCc2nc(-c3ccccc3)no2)no1`, the RP-LC retention time was found to be 742 s. The molecule `CSc1ccc(CNC(=O)C2CCCN(c3ncc(-c4ccc(F)cc4)cn3)C2)cc1` (centres undefined) showed an RP-LC retention time of 1090 s. As to `CCOc1cc(=O)n2c(c1C(=O)NC1CCc3ccccc31)CCCCC2` (centres undefined), the RP-LC retention time is 766 s. In the case of `COc1ccc(-c2ccnc3cc(C(=O)Nc4ccc5c(c4)OCO5)nn23)cc1OC`, the RP-LC retention time is 848 s. `CCc1ccc(N2CC(c3noc(-c4cc(OC)c(OC)c(OC)c4)n3)CC2=O)cc1` (centres undefined) showed an RP-LC retention time of 927 s. Take `O=C(c1nnc(-c2ccc(S(=O)(=O)N3CCOCC3)cc2)o1)N1CCN(C2CCCCC2)CC1`: the RP-LC retention time came out at 647 s. `COc1ccc(-c2c(C)noc2NC(C)=O)cc1S(=O)(=O)Nc1ccc(C#N)cc1`: the RP-LC retention time was found to be 710 s.

The molecule `Cc1cc(-n2nnc(C(=O)N3CCC4(CC3)OCCO4)c2-c2ccncc2)ccc1F` displayed an RP-LC retention time of 715 s. `CCOc1ccc(Oc2cc3c(cc2NC(=O)COc2ccc(C)cc2)n(C)c(=O)c(=O)n3C)cc1` gave an RP-LC retention time of 1030 s. Turning to `O=C(NCc1csc(C2CCN(C(=O)COc3ccccc3)CC2)n1)C1CC1`, the RP-LC retention time amounted to 701 s.

With `CCn1cc(-c2nc(-c3ccc(OCC(C)C)cc3)no2)c(=O)c2cc(F)c(N3CCOCC3)cc21`, the RP-LC retention time amounted to 917 s. `Cc1noc(-c2nn(C)c3c2CN(C(=O)NCc2ccc(F)cc2)CC3)n1`: the RP-LC retention time was found to be 699 s. Turning to `CCc1ccccc1NC(=O)N1CCCC1c1cc(C)no1` (centres undefined), the RP-LC retention time turned out to be 845 s. Take `CC(C)Cn1c(=O)c(C(=O)NCc2cccnc2)nc2cccnc21`: the RP-LC retention time amounted to 613 s. `O=C1CC(c2nc(-c3ccccc3F)no2)CN1c1ccc2c(c1)OCCO2` (centres undefined) returned an RP-LC retention time of 860 s. In the case of `CCN(CC)C(=O)c1cc(C)nc2c1c(=O)n(Cc1ccccc1)c(=O)n2C`, the RP-LC retention time amounted to 884 s. The result for `Cn1cc(-c2cc3n(n2)CCC(=O)N3CC(=O)Nc2ccc(Cl)cc2)c2ccccc21` reads 902 s; that for `O=C1CCC2(CNC(=O)c3cnccn3)CCCC=C2N1` (centres undefined), 623 s. The molecule `CCOC(=O)C1CCCN(c2ncc(S(=O)(=O)c3ccc(C)cc3)c(N)n2)C1` (centres undefined) returned an RP-LC retention time of 983 s. Take `Cc1c(Cl)cccc1NC(=O)N1C[C@@H](F)C[C@H]1C(=O)N1CCCCC1`: the RP-LC retention time amounted to 718 s. In turn, `COc1ccc2c(c1)sc1ncc(C(=O)N3CCN(c4ccccn4)CC3)c(=O)n12` yielded an RP-LC retention time of 589 s. As for `CCN(CC)C(=O)c1cc(C)nc2c1c(=O)n(Cc1nc(-c3ccccc3)oc1C)c(=O)n2C`, the RP-LC retention time is 996 s. With `COc1ccccc1NC(=O)NCCCn1c(C(F)(F)F)nc2cccnc21`, the RP-LC retention time amounted to 797 s. Next, `CCOc1ccc(-c2noc(CN3C(=O)COc4ccc(C)cc43)n2)cc1OC`: 1010 s. The result for `COc1ccc(S(=O)(=O)N2C[C@H]3CN(C(=O)Nc4ccccc4C)C[C@@H](C2)O3)cc1` reads 771 s; that for `Cc1cc(C)c2c(N3CCCCC3)nc(C(=O)NC(C)c3cccnc3)nc2n1` (centres undefined), 568 s. With `O=C(COc1ccc(-c2nnc3n2CCCC3)cc1)N1CCc2ccccc21`, the RP-LC retention time was 790 s. Molecule `Cc1ccc(-c2nnc(-c3ccc(-n4ccnc4)nc3)o2)cc1F` displayed an RP-LC retention time of 716 s.

`CCOc1cccc(-c2noc(Cn3c(=O)n(-c4ccc(OC)cc4)c(=O)c4sccc43)n2)c1` yielded an RP-LC retention time of 1000 s.

For `COc1ccc(-n2ncc3c(=O)n(Cc4nc(-c5ccc(C(F)(F)F)cc5)no4)cnc32)cc1`, the RP-LC retention time stood at 1090 s. The molecule `CCOC(=O)c1c(S(=O)(=O)N2CCC(C(=O)NC3CCCCCC3)CC2)c(C)n(C)c1C` returned an RP-LC retention time of 877 s. In turn, `O=S(=O)(c1ccc(F)cc1)N1CCc2nc(-c3ccc(F)cc3)ncc2C1` yielded an RP-LC retention time of 1070 s. `Cc1ccc(CNC(=O)C2(c3ccc(NS(C)(=O)=O)cc3)CCCCC2)cc1`: the RP-LC retention time is 943 s. Next, `Cc1c(CCOC(=O)c2ccc([N+](=O)[O-])cc2)sc[n+]1Cc1ccccc1`: 909 s; `CCOc1ccc(CNC(=O)c2ccc3c(c2)nc2n3CCN(C3CCCCC3)C2=O)cc1`: 830 s; `Cc1noc(C)c1S(=O)(=O)N1CCCCC1c1nncn1C` (centres undefined): 647 s. The result for `CCSc1nc2ccc(NS(=O)(=O)c3cc(F)cc(F)c3)cc2s1` reads 1050 s. Consider `CCn1cc(C)c(C(=O)O)c1CC(=O)N(C)c1ccccc1F`, for which the RP-LC retention time was 770 s. The result for `O=C(NCCc1ccccc1)C1CCN(C(=O)C2Sc3ccccc3NC2=O)CC1` (centres undefined) reads 740 s. `Cc1ccc(-n2nnnc2CNC(=O)c2ccc([N+](=O)[O-])o2)cc1C` gave an RP-LC retention time of 745 s. Molecule `Cc1cccc(NC(=O)NCC(c2cccnc2)c2cn(C)c3ccccc23)c1C` (centres undefined) displayed an RP-LC retention time of 719 s. `Cc1ccc(-c2nc(-c3cccc(-c4ccnn4C)c3)no2)cc1` showed an RP-LC retention time of 1210 s. Consider `CC(C)n1cnc2cc(CNC(=O)Cc3ccc(F)cc3)ccc21`, for which the RP-LC retention time stood at 623 s. Consider `C=CCn1c(C(=O)NCCc2c[nH]c3ccccc23)cc2cc(S(=O)(=O)N(C)C)ccc21`, for which the RP-LC retention time is 981 s.

With `O=C(c1ccc(OCC2CCCN2C(=O)C2CCCCC2)cc1)N1CCCC1` (centres undefined), the RP-LC retention time came to 888 s. The result for `CCNC(=O)c1nc(-c2ccncc2)cs1` reads 574 s; that for `CC(=O)N1c2ccccc2CC1c1nc(C(C)C)no1` (centres undefined), 841 s; that for `COc1ccc(-c2nnc(-c3cccc(S(=O)(=O)N4CCOCC4)c3)o2)cc1OC`, 813 s. Turning to `CC(C)C(=O)NCc1csc(C2CCCN(C(=O)C3CCCC3)C2)n1` (centres undefined), the RP-LC retention time amounted to 691 s. Molecule `CC(C)(C)c1ccccc1OCC(=O)Nc1nc(-c2ccccc2)cs1` had an RP-LC retention time of 1320 s. The molecule `CC(=O)NCCc1csc(C2CCN(C(=O)C3CCCO3)CC2)n1` (centres undefined) yielded an RP-LC retention time of 581 s. Regarding `O=C(NCc1[nH]nc2ccccc12)C1CC(=O)N(c2cccc(Cl)c2)C1` (centres undefined), the RP-LC retention time turned out to be 743 s.

With `O=C(c1ccco1)N1CCc2c([nH]c3ccccc23)C1c1ccc(F)cc1` (centres undefined), the RP-LC retention time is 1080 s. Molecule `Clc1cncc(N2CCNCC2)n1` showed an RP-LC retention time of 614 s.
